Literature values as cited in US8993486B2, “Ultra-high throughput screening methods to detect synergistic drug interactions” (Lankenau Institute for Medical Research Chemical Genomics …, priority 2010, dated 2015).

System: diverse fungal pathogens

Molecule | fungicidal activity alone (low dosage) | synergy with ketoconazole (KTC) activity (checkerboard assay, diverse fungal pathogens)
CC(=O)N1CCN(c2ccc(OCC3COC(Cn4ccnc4)(c4ccc(Cl)cc4Cl)O3)cc2)CC1 (centres unmarked) [ketoconazole] | little detectable fungicidal activity | –
beauvericin | – | dramatically synergized KTC activity
